Test system: facial skin vasodilation induced by electrical trigeminal ganglion stimulation
Assay: Facial skin blood flow (vasodilation) after electrical trigeminal ganglion stimulation, laser Doppler flowmetry
Assay type: in vivo
Details: anaesthetized male Wistar rat, 0.1 mg/kg i.v. 5 min prior to second stimulation
Method: Measurement of Facial Skin Blood Flow
Fasted male wistar rats (strain CHbb:THOM, 280-320 g) were anaesthetized with sodium pentobarbitone (initially with 60 mg/kg i.p. and maintained throughout the experiment with an intraperitoneal infusion of 30 mg/kg/h through a 23 G needle using a solution of 10 mg/ml). […] The trachea was cannulated and the animals were artificially respired (80 strokes/min) with room air supplemented with oxygen. The body temperature was maintained at 37° C. by an automated heating pad. The left femoral artery and the left femoral vein were cannulated for the continuous measurement of arterial blood pressure and intravenous administration of test compounds, respectively. Neuromuscular blockade was achieved by intravenous administration of pancuronium bromide (1 mg/kg/0.5 ml, 5 min prior to each electrical stimulation). Heart rate was derived from the blood pressure signal. Blood pressure and heart rate were continuously monitored throughout the course of the experiment to assess the level of anaesthesia and to monitor the cardiovascular effects of the drugs used in this study.
The animals were placed in a stereotaxic frame and a longitudinal incision was made in the scalp. […] The position of the electrodes in the trigeminal ganglia were checked visually at the end of each experiment following removal of the brain. […]

SMILES: CN1C[C@H](C(=O)N[C@]2(C)O[C@@]3(O)[C@@H]4CCCN4C(=O)[C@H](Cc4ccccc4)N3C2=O)C[C@@H]2c3cccc4[nH]cc(c34)C[C@H]21 [DHE, Dihydroergotamin]
- % of trigeminus stimulation (mean ± spread): 60.4 ± 4.1%
- % inhibition compared to control value (vs saline control): 27.0%
